In the supplement of paper PMC10307832:

What was measured:
Experiment in all cases: relative viability (nuclei count vs DMSO), 5 days (fraction); higher = more cells survive
Everolimus + Palbociclib = compound: CO[C@H]1C[C@@H]2CC[C@@H](C)[C@@](O)(O2)C(=O)C(=O)N2CCCC[C@H]2C(=O)O[C@H]([C@H](C)C[C@@H]2CC[C@@H](OCCO)[C@H](OC)C2)CC(=O)[C@H](C)/C=C(\C)[C@@H](O)[C@@H](OC)C(=O)[C@H](C)C[C@H](C)/C=C/C=C/C=C/1C [Everolimus] + CC(=O)c1c(C)c2cnc(Nc3ccc(N4CCNCC4)cn3)nc2n(C2CCCC2)c1=O [Palbociclib] (partner 0.5 µM)
Method in brief: (§1)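 Five library-drug doses in √10 steps were combined with a fixed anchor-drug dose, or a single drug was given alone, by pin tool to lung cancer cell lines in 1536-well plates the day after seeding. Nuclei were stained and counted after 5 days. Relative viability is the nuclei count in treated wells over that in vehicle wells, taken as the median of duplicate plates.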

Everolimus + Foretinib = compound: CO[C@H]1C[C@@H]2CC[C@@H](C)[C@@](O)(O2)C(=O)C(=O)N2CCCC[C@H]2C(=O)O[C@H]([C@H](C)C[C@@H]2CC[C@@H](OCCO)[C@H](OC)C2)CC(=O)[C@H](C)/C=C(\C)[C@@H](O)[C@@H](OC)C(=O)[C@H](C)C[C@H](C)/C=C/C=C/C=C/1C [Everolimus] + COc1cc2c(Oc3ccc(NC(=O)C4(C(=O)Nc5ccc(F)cc5)CC4)cc3F)ccnc2cc1OCCCN1CCOCC1 [Foretinib] (partner 0.25 µM)
Method in brief: as §1

Everolimus + OSI-027 = compound: CO[C@H]1C[C@@H]2CC[C@@H](C)[C@@](O)(O2)C(=O)C(=O)N2CCCC[C@H]2C(=O)O[C@H]([C@H](C)C[C@@H]2CC[C@@H](OCCO)[C@H](OC)C2)CC(=O)[C@H](C)/C=C(\C)[C@@H](O)[C@@H](OC)C(=O)[C@H](C)C[C@H](C)/C=C/C=C/C=C/1C [Everolimus] + COc1cccc2cc(-c3nc([C@H]4CC[C@H](C(=O)O)CC4)n4ncnc(N)c34)[nH]c12 [OSI-027] (partner 0.5 µM)
Method in brief: as §1

Everolimus = compound: CO[C@H]1C[C@@H]2CC[C@@H](C)[C@@](O)(O2)C(=O)C(=O)N2CCCC[C@H]2C(=O)O[C@H]([C@H](C)C[C@@H]2CC[C@@H](OCCO)[C@H](OC)C2)CC(=O)[C@H](C)/C=C(\C)[C@@H](O)[C@@H](OC)C(=O)[C@H](C)C[C@H](C)/C=C/C=C/C=C/1C [Everolimus]
Method in brief: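 After an overnight hold at 37 °C, lung cancer cell lines in 1536-well plates were pinned with five library-drug doses (not always all listed), each √10 from the next, on vehicle-anchored plates. The cells stayed 5 days without fresh medium, then a one-step fix, permeabilisation and Hoechst stain preceded 4× imaging and MetaXpress nuclear counts. A plate passed only with control CV under 25% and at least one doubling. Viability is the median, over plates, of treated-well nuclei relative to vehicle-well nuclei.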

| Cell Line | relative viability (Everolimus + Palbociclib; first compound 0.01 µM) | relative viability (Everolimus + Palbociclib; first compound 0.03162 µM) | relative viability (Everolimus + Palbociclib; first compound 0.1 µM) | relative viability (Everolimus + Palbociclib; first compound 0.3162 µM) | relative viability (Everolimus + Palbociclib; first compound 1 µM) | relative viability (Everolimus + Foretinib; first compound 0.01 µM) | relative viability (Everolimus + Foretinib; first compound 0.1 µM) | relative viability (Everolimus + Foretinib; first compound 0.3162 µM) | relative viability (Everolimus + Foretinib; first compound 1 µM) | relative viability (Everolimus + OSI-027; first compound 0.01 µM) | relative viability (Everolimus + OSI-027; first compound 0.03162 µM) | relative viability (Everolimus + OSI-027; first compound 0.1 µM) | relative viability (Everolimus + OSI-027; first compound 0.3162 µM) | relative viability (Everolimus + OSI-027; first compound 1 µM) | relative viability (Everolimus; 0.01 µM) | relative viability (Everolimus; 0.03162 µM) | relative viability (Everolimus; 0.1 µM) | relative viability (Everolimus; 0.3162 µM) | relative viability (Everolimus; 1 µM) | relative viability (Everolimus + Foretinib; first compound 0.03162 µM) |
| --- | --- | --- | --- | --- | --- | --- | --- | --- | --- | --- | --- | --- | --- | --- | --- | --- | --- | --- | --- | --- |
| LK-2 | 0.536 | 0.312 | 0.321 | 0.314 | 0.33 | 0.638 | 0.583 | 0.656 | 0.679 | 0.152 | 0.153 | 0.167 | 0.162 | 0.172 | 0.844 | 0.554 | 0.546 | 0.491 | 0.487 | – |
| LOU-NH91 | 0.533 | 0.561 | 0.55 | 0.54 | 0.547 | 0.853 | 0.712 | 0.746 | 0.691 | 0.529 | 0.57 | 0.531 | 0.524 | 0.516 | 0.823 | 0.799 | 0.798 | 0.789 | 0.773 | 0.793 |
| LU99A | 0.242 | 0.237 | 0.234 | 0.203 | 0.243 | 0.52 | 0.525 | 0.519 | 0.605 | 0.234 | 0.243 | 0.245 | 0.248 | 0.241 | 0.557 | 0.644 | 0.626 | 0.591 | 0.679 | 0.565 |
| LXF-289 | 0.583 | 0.542 | 0.504 | 0.504 | 0.476 | 1.03 | 0.936 | 0.99 | 1 | 0.654 | 0.604 | 0.529 | 0.572 | 0.576 | 1.09 | 1.07 | 1 | 1.03 | 1.05 | 1 |
| NCI-H23 | 0.261 | 0.272 | 0.317 | 0.232 | 0.252 | 0.751 | 0.527 | 0.529 | 0.517 | 0.382 | 0.35 | 0.362 | 0.41 | 0.378 | 0.639 | 0.516 | 0.468 | 0.583 | 0.55 | 0.654 |
| NCI-H322M | 0.473 | 0.454 | 0.409 | 0.47 | 0.424 | 0.695 | 0.666 | 0.78 | 0.73 | 0.425 | 0.501 | 0.473 | 0.433 | 0.495 | 0.688 | 0.728 | 0.733 | 0.694 | 0.722 | 0.655 |
| NCI-H358 | 0.136 | 0.15 | 0.129 | 0.11 | 0.128 | 0.432 | 0.496 | 0.388 | 0.432 | 0.347 | 0.337 | 0.336 | 0.34 | 0.378 | 0.483 | 0.487 | 0.514 | 0.479 | 0.525 | 0.45 |
| NCI-H441 | 0.204 | 0.188 | 0.153 | 0.222 | 0.207 | 0.972 | 0.726 | 0.833 | 0.659 | 0.557 | 0.479 | 0.474 | 0.585 | 0.358 | 0.898 | 0.961 | 0.907 | 0.984 | 0.952 | 0.863 |
| NCI-H460 | 0.104 | 0.165 | 0.123 | 0.0825 | 0.0699 | 1.01 | 0.969 | 0.942 | 1.11 | 0.389 | 0.503 | 0.304 | 0.314 | 0.333 | 0.951 | 1.03 | 0.957 | 0.921 | 0.939 | 1.01 |
| NCI-H520 | 0.155 | 0.182 | 0.194 | 0.14 | 0.194 | 0.478 | 0.321 | 0.434 | 0.349 | 0.21 | 0.179 | 0.218 | 0.185 | 0.193 | 0.436 | 0.413 | 0.401 | 0.326 | 0.371 | 0.335 |
| NCI-H647 | 0.194 | 0.231 | 0.159 | 0.137 | 0.219 | 0.957 | 0.646 | 0.776 | 0.612 | 0.363 | 0.401 | 0.343 | 0.449 | 0.489 | 0.644 | 0.521 | 0.539 | 0.535 | 0.65 | 0.697 |
| NCI-H650 | 0.368 | 0.262 | 0.279 | 0.278 | 0.248 | 1.01 | 0.842 | 0.816 | 0.649 | 0.372 | – | 0.446 | 0.392 | 0.363 | 0.7 | – | 0.783 | 0.566 | 0.583 | – |
| NCI-H661 | 0.334 | 0.321 | 0.328 | 0.31 | 0.295 | 0.876 | 0.738 | 0.73 | 0.664 | 0.471 | 0.44 | 0.433 | 0.4 | 0.511 | 0.812 | 0.814 | 0.786 | 0.746 | 0.667 | 0.702 |
| NCI-H727 | 0.642 | 0.529 | 0.725 | 0.613 | 0.643 | 0.67 | 0.611 | 0.603 | 0.425 | 0.425 | 0.392 | 0.467 | 0.345 | 0.444 | 0.67 | 0.537 | 0.518 | 0.608 | 0.552 | 0.569 |
